Assay results: patent publication US20260069588A1, “VEPDEGESTRANT FOR USE IN TREATING CANCER” (Arvinas Operation, Inc., priority 2022, published 2026)

Experiment: Phase 1 single agent studies in Japanese and Chinese participants (C4891016, C4891018): adverse events
[1] = TEAE treatment related, 200 mg, N = 15

Text: TEAE's from participants in both studies have been combined and are described below.

O=C1CC[C@H](N2Cc3cc(N4CCN(CC5CCN(c6ccc([C@@H]7c8ccc(O)cc8CC[C@@H]7c7ccccc7)cc6)CC5)CC4)ccc3C2=O)C(=O)N1 [Compound A, (S)-3-(5-(4-((1-(4-((1R,2S)-6-hydroxy-2-phenyl-1,2,3,4-tetrahydronaphthalen-1-yl)phenyl)piperidin-4-yl)methyl)piperazin-1-yl)-1-oxoisoindolin-2-yl)piperidine-2,6-dione]
participants with a TRAE (200 mg): 11 of 15 participants
participants with a TEAE (200 mg, 15 evaluable): 73.3%
participants with grade 3-4 TEAE (200 mg, 15 evaluable): 33.4%
TEAE Alanine aminotransferase increased (200 mg, N=15): 26.7%
TEAE anemia (200 mg, N=15): 40.0%
TEAE electrocardiogram QT prolonged (200 mg, N=15): 33.3%
TEAEs constipation, hyperuricemia, hypokalaemia, neutrophil count decreased, each (200 mg, N=15): 20.0%
TRAEs alanine aminotransferase increased and electrocardiogram QT prolonged, each (200 mg, N=15): 20.0%
TRAEs aspartate aminotransferase increased, constipation, hyperuricemia, neutrophil count decreased, each (200 mg, N=15): 13.3%
SAEs (3 participants, 6 Jun 2023): 3 SAEs
Abdominal discomfort, Grade 1 [1]: 1 (6.7) n (%)
Abdominal discomfort, Grade 2 [1]: 0 n (%)
Abdominal discomfort, Grade 3 [1]: 0 n (%)
Abdominal discomfort, Grade 4 [1]: 0 n (%)
Abdominal discomfort, Grade 5 [1]: 0 n (%)
Abdominal discomfort, Missing or Unknown [1]: 0 n (%)
Abdominal discomfort, Total [1]: 1 (6.7) n (%)
Alanine aminotransferase increased, Grade 1 [1]: 3 (20.0) n (%)
Alanine aminotransferase increased, Grade 2 [1]: 0 n (%)
Alanine aminotransferase increased, Grade 3 [1]: 0 n (%)
Alanine aminotransferase increased, Grade 4 [1]: 0 n (%)
Alanine aminotransferase increased, Grade 5 [1]: 0 n (%)
Alanine aminotransferase increased, Missing or Unknown [1]: 0 n (%)
Alanine aminotransferase increased, Total [1]: 3 (20.0) n (%)
Alopecia, Grade 1 [1]: 1 (6.7) n (%)
Alopecia, Grade 2 [1]: 0 n (%)
Alopecia, Grade 3 [1]: 0 n (%)
Alopecia, Grade 4 [1]: 0 n (%)
Alopecia, Grade 5 [1]: 0 n (%)
Alopecia, Missing or Unknown [1]: 0 n (%)
Alopecia, Total [1]: 1 (6.7) n (%)
Anemia, Grade 1 [1]: 0 n (%)
Anemia, Grade 2 [1]: 1 (6.7) n (%)
Anemia, Grade 3 [1]: 0 n (%)
Anemia, Grade 4 [1]: 0 n (%)
Anemia, Grade 5 [1]: 0 n (%)
Anemia, Missing or Unknown [1]: 0 n (%)
Anemia, Total [1]: 1 (6.7) n (%)
Arthralgia, Grade 1 [1]: 1 (6.7) n (%)
Arthralgia, Grade 2 [1]: 0 n (%)
Arthralgia, Grade 3 [1]: 0 n (%)
Arthralgia, Grade 4 [1]: 0 n (%)
Arthralgia, Grade 5 [1]: 0 n (%)
Arthralgia, Missing or Unknown [1]: 0 n (%)
Arthralgia, Total [1]: 1 (6.7) n (%)
Aspartate aminotransferase increased, Grade 1 [1]: 2 (13.3) n (%)
Aspartate aminotransferase increased, Grade 2 [1]: 0 n (%)
Aspartate aminotransferase increased, Grade 3 [1]: 0 n (%)
Aspartate aminotransferase increased, Grade 4 [1]: 0 n (%)
Aspartate aminotransferase increased, Grade 5 [1]: 0 n (%)
Aspartate aminotransferase increased, Missing or Unknown [1]: 0 n (%)
Aspartate aminotransferase increased, Total [1]: 2 (13.3) n (%)
Bilirubin conjugated increased, Grade 1 [1]: 0 n (%)
Bilirubin conjugated increased, Grade 2 [1]: 1 (6.7) n (%)
Bilirubin conjugated increased, Grade 3 [1]: 0 n (%)
Bilirubin conjugated increased, Grade 4 [1]: 0 n (%)
Bilirubin conjugated increased, Grade 5 [1]: 0 n (%)
Bilirubin conjugated increased, Missing or Unknown [1]: 0 n (%)
Bilirubin conjugated increased, Total [1]: 1 (6.7) n (%)
Blood and lymphatic system disorders, Grade 1 [1]: 0 n (%)
Blood and lymphatic system disorders, Grade 2 [1]: 1 (6.7) n (%)
Blood and lymphatic system disorders, Grade 3 [1]: 0 n (%)
Blood and lymphatic system disorders, Grade 4 [1]: 0 n (%)
Blood and lymphatic system disorders, Grade 5 [1]: 0 n (%)
Blood and lymphatic system disorders, Missing or Unknown [1]: 0 n (%)
Blood and lymphatic system disorders, Total [1]: 1 (6.7) n (%)
Blood bilirubin increased, Grade 1 [1]: 0 n (%)
Blood bilirubin increased, Grade 2 [1]: 1 (6.7) n (%)
Blood bilirubin increased, Grade 3 [1]: 0 n (%)
Blood bilirubin increased, Grade 4 [1]: 0 n (%)
Blood bilirubin increased, Grade 5 [1]: 0 n (%)
Blood bilirubin increased, Missing or Unknown [1]: 0 n (%)
Blood bilirubin increased, Total [1]: 1 (6.7) n (%)
Blood bilirubin unconjugated increased, Grade 1 [1]: 1 (6.7) n (%)
Blood bilirubin unconjugated increased, Grade 2 [1]: 0 n (%)
Blood bilirubin unconjugated increased, Grade 3 [1]: 0 n (%)
Blood bilirubin unconjugated increased, Grade 4 [1]: 0 n (%)
Blood bilirubin unconjugated increased, Grade 5 [1]: 0 n (%)
Blood bilirubin unconjugated increased, Missing or Unknown [1]: 0 n (%)
Blood bilirubin unconjugated increased, Total [1]: 1 (6.7) n (%)
Cardiac disorders, Grade 1 [1]: 1 (6.7) n (%)
Cardiac disorders, Grade 2 [1]: 0 n (%)
Cardiac disorders, Grade 3 [1]: 0 n (%)
Cardiac disorders, Grade 4 [1]: 0 n (%)
Cardiac disorders, Grade 5 [1]: 0 n (%)
Cardiac disorders, Missing or Unknown [1]: 0 n (%)
Cardiac disorders, Total [1]: 1 (6.7) n (%)
Constipation, Grade 1 [1]: 2 (13.3) n (%)
Constipation, Grade 2 [1]: 0 n (%)
Constipation, Grade 3 [1]: 0 n (%)
Constipation, Grade 4 [1]: 0 n (%)
Constipation, Grade 5 [1]: 0 n (%)
Constipation, Missing or Unknown [1]: 0 n (%)
Constipation, Total [1]: 2 (13.3) n (%)
Decreased appetite, Grade 1 [1]: 1 (6.7) n (%)
Decreased appetite, Grade 2 [1]: 0 n (%)
Decreased appetite, Grade 3 [1]: 0 n (%)
Decreased appetite, Grade 4 [1]: 0 n (%)
Decreased appetite, Grade 5 [1]: 0 n (%)
Decreased appetite, Missing or Unknown [1]: 0 n (%)
Decreased appetite, Total [1]: 1 (6.7) n (%)
Dizziness, Grade 1 [1]: 1 (6.7) n (%)
Dizziness, Grade 2 [1]: 0 n (%)
Dizziness, Grade 3 [1]: 0 n (%)
Dizziness, Grade 4 [1]: 0 n (%)
Dizziness, Grade 5 [1]: 0 n (%)
Dizziness, Missing or Unknown [1]: 0 n (%)
Dizziness, Total [1]: 1 (6.7) n (%)
Electrocardiogram QT prolonged, Grade 1 [1]: 2 (13.3) n (%)
Electrocardiogram QT prolonged, Grade 2 [1]: 0 n (%)
Electrocardiogram QT prolonged, Grade 3 [1]: 1 (6.7) n (%)
Electrocardiogram QT prolonged, Grade 4 [1]: 0 n (%)
Electrocardiogram QT prolonged, Grade 5 [1]: 0 n (%)
Electrocardiogram QT prolonged, Missing or Unknown [1]: 0 n (%)
Electrocardiogram QT prolonged, Total [1]: 3 (20.0) n (%)
Fatigue, Grade 1 [1]: 1 (6.7) n (%)
Fatigue, Grade 2 [1]: 0 n (%)
Fatigue, Grade 3 [1]: 0 n (%)
Fatigue, Grade 4 [1]: 0 n (%)
Fatigue, Grade 5 [1]: 0 n (%)
Fatigue, Missing or Unknown [1]: 0 n (%)
Fatigue, Total [1]: 1 (6.7) n (%)
Gamma-glutamyl transferase increased, Grade 1 [1]: 1 (6.7) n (%)
Gamma-glutamyl transferase increased, Grade 2 [1]: 0 n (%)
Gamma-glutamyl transferase increased, Grade 3 [1]: 0 n (%)
Gamma-glutamyl transferase increased, Grade 4 [1]: 0 n (%)
Gamma-glutamyl transferase increased, Grade 5 [1]: 0 n (%)
Gamma-glutamyl transferase increased, Missing or Unknown [1]: 0 n (%)
Gamma-glutamyl transferase increased, Total [1]: 1 (6.7) n (%)
Gastrointestinal disorders, Grade 1 [1]: 4 (26.7) n (%)
Gastrointestinal disorders, Grade 2 [1]: 0 n (%)
